Results published in US5389615A, “Peptides and pharmaceutical composition thereof in the treatment of pain” (British Technology Group Ltd., priority 1988, dated 1995).
Residues, ends and D or L forms follow the SMILES beside them.

Legend:
[1] = test system: hyperalgesia evoked by PGE2; assay: Rat paw pressure test, hyperalgesia evoked by PGE2; format: in vivo; settings: for DELTA REACTION TIME: 3 h after PGE2, control 16.8
[2] = test system: hyperalgesia evoked by DbcAMP; assay: Rat paw pressure test, hyperalgesia evoked by DbcAMP; format: in vivo; settings: 200 μg/150 g rat ip 1 h before DbcAMP (100 μg/paw) ipl
[3] = test system: hyperalgesia evoked by IL-1β; assay: Modified Randall-Sellito rat paw pressure test, hyperalgesia evoked by IL-1β; format: in vivo; settings: for DELTA REACTION TIME: 3h after IL-1β, control 23.9
Description: The hyperalgesic activity of IL-1β was investigated by a modified Randall-Sellito rat paw pressure test (Ferreira et al, Eur. J. Pharacol. 53, 39-48, 1978).
The IL-1β was given either intraplantar (ipl, injection volume=0.1 ml) or intraperitoneally (ip, injection volume=0.3 ml).
The intensity of hyperalgesia was quantified as the variation of the reaction time (Δ reaction time, sec) obtained by subtracting the value measured 1,2,3 or 4h after administration of the hyperalgesic agent from the pre-injection control reaction time (zero time). The experimenter was unaware of the group treatments.
The vertical bars are standard errors of the means (s.e.m's) of values obtained in groups of 5 rats.
Each symbol or histogram represents the mean response of 5 animals per treatment group. Vertical bars are s.e.m's.
The data are means±s.e.m.'s of 5 animals per treatment group.
Each symbol represents the mean response of 5 animals per treatment group. Vertical bars are s.e.m.'s.
Treatments were given ip, lh before Il-1β, also given ip. There were 5 animals per treatment group.
Delta reaction time was measured 3h after Il-1β administration.
The Control was II-1β (0.05U), given ip.

febrile rabbits = settings: Richards and Lipton, Peptides 5 (1984) 815-817; cited from earlier work
[4] = 20 μg/150 g rat ip 1h before PGE2 ipl
[5] = 50 μg/150 g rat ip 1h before PGE2 ipl
[6] = 100 μg/150 g rat ip 1h before PGE2 ipl
[7] = 200 μg/150 g rat ip 1h before PGE2 ipl
[8] = 20 μg/150 g rat ip 1h before IL-1β (0.05U) ip
[9] = 50 μg/150 g rat ip 1h before IL-1β (0.05U) ip
[10] = 100 μg/150 g rat ip 1h before IL-1β (0.05U) ip
[11] = 200 μg/150 g rat ip 1h before IL-1β (0.05U) ip

## CC(C)[C@H](NC(=O)[C@@H]1CCCN1C(=O)[C@@H](N)CCCCN)C(=O)O [KPV, Lys-Pro-Val] (H-Lys-Pro-Val-OH)
[1]; [4]
  % change of delta reaction time vs control (=100%): -11.3%
  DELTA REACTION TIME: 14.9 ± 0.4 s
[1]; [5]
  % change of delta reaction time vs control (=100%): -22.6%
  DELTA REACTION TIME: 13.0 ± 0.3 s
[1]; [6]
  % change of delta reaction time vs control (=100%): -41.1%
  DELTA REACTION TIME: 9.9 ± 0.2 s
[1]; [7]
  % change of delta reaction time vs control (=100%): -53.6%
  DELTA REACTION TIME: 7.8 ± 0.6 s
[1]; rats
  ED50 antagonising PGE2 evoked hyperalgesia: approximately 170 μg/150 g rat
  antagonism of hyperalgesia evoked by PGE2: antagonize hyperalgesia evoked by PGE2
[2]
  % change of delta reaction time vs control (=100%): -8.1%
[2]; 3 h after DbcAMP, control 17.2
  DELTA REACTION TIME: 15.8 ± 0.3 s
[3]; [8]
  % change of delta reaction time vs control (=100%): -21.3%
  DELTA REACTION TIME: 18.8 ± 0.3 s
[3]; [9]
  % change of delta reaction time vs control (=100%): -52.7%
  DELTA REACTION TIME: 11.3 ± 0.5 s
[3]; [10]
  % change of delta reaction time vs control (=100%): -69.9%
  DELTA REACTION TIME: 7.2 ± 0.6 s
[3]; [11]
  % change of delta reaction time vs control (=100%): -83.7%
  DELTA REACTION TIME: 3.9 ± 0.3 s
[3]; rats
  ED50 antagonising IL-1β evoked hyperalgesia: 70 μg/150 g rat
[3]; rats, peptide given before IL-1β
  antagonism of hyperalgesia evoked by IL-1β: more potent antagonists of I1-1β-evoked hyperalgesia than Lys-D-Pro-Thr
Febrile rabbits
  antipyretic effect: antipyretic effect
